target: T1, AM2 receptor (CALCRL+RAMP3) (Homo sapiens, UniProt O60896+Q16602); experiment: AM2 receptor inhibition, LANCE TR-FRET cAMP agonist-antagonist competition assay; format: cell-based; settings: inhibition of AM induced cAMP activation; 1321N1 cells transfected with CALCRL+RAMP3; read-out: AM2 pIC50 (converted)
T1 construct: host or cells: 1321N1
Method: Compounds were assessed for their ability to inhibit ligand-induced elevations of cAMP, using the Perkin Elmer LANCE cAMP assay using commercially-available cells expressing a specific receptor of interest using the following general procedure:
Compounds were prepared in dimethyl sulfoxide (DMSO—99.9% pure) (Sigma Aldrich, Cat #: D4540) added to powder stocks to produce a 20 mM solution (100% DMSO) that was sonicated at 37° C. for 10 minutes to fully dissolve the compounds. The 20 mM stocks were diluted further in DMSO to produce a 2 mM solution that was sonicated at 37° C. for 10 minutes. 2 mM stocks were dissolved in assay/stimulation buffer to produce a 400 μM solution that was sonicated at 37° C. for 10 minutes for all cAMP assays. All stocks were stored at −20° C. Then serial dilution (Dilution factor 10) was performed to achieve the desire experimental concentrations.
Competition assays were performed according to the manufactures instructions using LANCE® TR-FRET cAMP assay kit (Perkin Elmer, Cat #: AD0264). Serial dilutions (3 μl/well) of the molecules were plated in a 384-well OptiPlate (Perkin Elmer, Cat #: 6007299) in duplicates. Appropriate controls (100% stimulation: Forskolin and 0% stimulation: Vehicle control) (6 μl/well) were included in each plate for data normalization. Following the compound addition, 6 μl of G-protein coupled receptor overexpressing cells/Alexa Fluor antibody solution (1:100 dilution) was added in each well at a desired density of 2500 cells/well. The overexpressing cell lines were purchased from DiscoveRx, Birmingham, UK. After spinning the plate at 1000 rpm for 1 minute and vortexing briefly, the cells were pre-incubated with the compounds for 30 minutes at room temperature (covered). Then 3 μl of the equivalent peptide ligand (EC50 dose) was added to all the wells except vehicle and forskolin controls. The plate were then spun down at 1000 rpm for 1 minute and once finished they were vortexed briefly and covered. Cells were stimulated in the presence of the ligands for 15 minutes at room temperature. After stimulation 12 μl of detection mix (Europium-Chelate streptavidin/biotinylated cAMP tracer solution) was added to all wells and incubated for 60 minutes at room temperature. The plate was then read on the Enspire multimode Plate reader (Perkin Elmer), at; 320/340 nm excitation and 615/665 nm emission was recorded.
• 28 mL Hank's Balanced salt solution (+MgCl2, +CaCl2)—(Thermo Fisher Cat #:14170112) • 150 μl HEPES (1M)—(Thermo Fisher Cat #:15630080) • 400 μl Stabilizer (DTPA) Purified BSA (7.5%)—(Perkin Elmer, Cat #: CR84-100) • 60 μl IBMX (250 mM)—(Sigma Aldrich, Cat #: 15879) Specific cAMP/Agonist-Antagonist Competition Assays
The ability of a compound to inhibit the AM induced cAMP activation in AM2 receptor-expressing cells (1321N1 cells transfected with CALCRL+RAMP3, sourced from DiscoverX catalogue number 95-0169C6) was assessed using the protocol above.

T1 sequence (Q16602 23-461): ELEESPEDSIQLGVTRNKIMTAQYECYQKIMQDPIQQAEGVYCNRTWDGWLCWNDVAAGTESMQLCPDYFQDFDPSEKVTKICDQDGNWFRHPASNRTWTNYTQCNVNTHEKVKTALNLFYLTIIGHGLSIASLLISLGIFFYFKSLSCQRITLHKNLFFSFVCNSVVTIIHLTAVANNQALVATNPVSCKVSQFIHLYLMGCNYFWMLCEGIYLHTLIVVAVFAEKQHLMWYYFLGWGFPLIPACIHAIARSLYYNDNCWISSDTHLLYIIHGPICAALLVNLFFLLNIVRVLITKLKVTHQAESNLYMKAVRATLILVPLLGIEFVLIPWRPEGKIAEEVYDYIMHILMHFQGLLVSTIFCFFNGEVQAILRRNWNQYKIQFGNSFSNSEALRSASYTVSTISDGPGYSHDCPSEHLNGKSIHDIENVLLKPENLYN
T1 sequence (O60896 24-148): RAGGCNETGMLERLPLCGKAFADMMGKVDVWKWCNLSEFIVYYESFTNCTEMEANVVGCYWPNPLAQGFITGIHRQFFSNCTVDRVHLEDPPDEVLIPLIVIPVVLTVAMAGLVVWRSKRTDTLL

Compound | IC50 [nM]
CC(C)(C)C(=O)N(CC(=O)Nc1ccc2c(c1)CC1(C2)C(=O)Nc2ncccc21)Cc1ccccc1CNCC(F)F (stereo not shown) [Example 3, N-(2-(((2,2-Difluoroethyl)amino)methyl)benzyl)-N-(2-oxo-2-((2′-oxo-1,1′,2′,3-tetrahydrospiro[indene-2,3′-pyrrolo[2,3-b]pyridine]-5-yl)amino)ethyl)pivalamide] | 324
CC(C)(C)C(=O)N(CC(=O)Nc1ccc2c(c1)CC1(C2)C(=O)Nc2ncccc21)Cc1ccccc1CN1CCCC1 (stereo not shown) [Example 4, N-(2-Oxo-2-((2′-oxo-1,1′,2′,3-tetrahydrospiro[indene-2,3′-pyrrolo[2,3-b]pyridine]-5-yl)amino)ethyl)-N-(2-(pyrrolidin-1-ylmethyl)benzyl)pivalamide] | 60.3
CC(C)(C)C(=O)N(CC(=O)Nc1ccc2c(c1)CC1(C2)C(=O)Nc2ncccc21)Cc1ccccc1CNCC(F)(F)F (stereo not shown) [Example 6, N-(2-Oxo-2-((2′-oxo-1,1′,2′,3-tetrahydrospiro[indene-2,3′-pyrrolo[2,3-b]pyridine]-5-yl)amino)ethyl)-N-(2-(((2,2,2-trifluoroethyl)amino)methyl)benzyl)pivalamide] | 513
CN(C)CCNCc1ccccc1CN(CC(=O)Nc1ccc2c(c1)CC1(C2)C(=O)Nc2ncccc21)C(=O)C(C)(C)C (stereo not shown) [Example 7, N-(2-(((2-(Dimethylamino)ethyl)amino)methyl)benzyl)-N-(2-oxo-2-((2′-oxo-1,1′,2′,3-tetrahydrospiro[indene-2,3′-pyrrolo[2,3-b]pyridine]-5-yl)amino)ethyl)pivalamide] | 126
CC(C)(C)C(=O)N(CC(=O)Nc1ccc2c(c1)CC1(C2)C(=O)Nc2ncccc21)Cc1ccccc1CNCC1CC1 (stereo not shown) [Example 8, N-(2-(((Cyclopropylmethyl)amino)methyl)benzyl)-N-(2-oxo-2-((2′-oxo-1,1′,2′,3-tetrahydrospiro[indene-2,3′-pyrrolo[2,3-b]pyridine]-5-yl)amino)ethyl)pivalamide] | 166
CC(C)(C)C(=O)N(CC(=O)Nc1ccc2c(c1)CC1(C2)C(=O)Nc2ncccc21)Cc1ccccc1CNCc1ncc[nH]1 (stereo not shown) [Example 9, N-(2-((((1H-Imidazol-2-yl)methyl)amino)methyl)benzyl)-N-(2-oxo-2-((2′-oxo-1,1′,2′,3-tetrahydrospiro[indene-2,3′-pyrrolo[2,3-b]pyridine]-5-yl)amino)ethyl)pivalamide] | 240
CC(C)(C)C(=O)N(CC(=O)Nc1ccc2c(c1)CC1(C2)C(=O)Nc2ncccc21)Cc1ccccc1CN1CC(F)C1 (stereo not shown) [Example 10, N-(2-((3-Fluoroazetidin-1-yl)methyl)benzyl)-N-(2-oxo-2-((2′-oxo-1,1′,2′,3-tetrahydrospiro[indene-2,3′-pyrrolo[2,3-b]pyridin]-5-yl)amino)ethyl)pivalamide] | 91.2
CC(C)(C)C(=O)N(CC(=O)Nc1ccc2c(c1)CC1(C2)C(=O)Nc2ncccc21)Cc1ccccc1CN1CC(F)(F)C1 (stereo not shown) [Example 11, N-(2-((3,3-Difluoroazetidin-1-yl)methyl)benzyl)-N-(2-oxo-2-((2′-oxo-1,1′,2′,3-tetrahydrospiro[indene-2,3′-pyrrolo[2,3-b]pyridin]-5-yl)amino)ethyl)pivalamide] | 398
CN(C)CCCNCc1ccccc1CN(CC(=O)Nc1ccc2c(c1)CC1(C2)C(=O)Nc2ncccc21)C(=O)C(C)(C)C (stereo not shown) [Example 12, N-(2-(((3-(Dimethylamino)propyl)amino)methyl)benzyl)-N-(2-oxo-2-((2′-oxo-1,1′,2′,3-tetrahydrospiro[indene-2,3′-pyrrolo[2,3-b]pyridin]-5-yl)amino)ethyl)pivalamide] | 186
CC(C)(C)C(=O)N(CC(=O)Nc1ccc2c(c1)CC1(C2)C(=O)Nc2ncccc21)Cc1ccccc1CNCCO (stereo not shown) [Example 13, N-(2-(((2-Hydroxyethyl)amino)methyl)benzyl)-N-(2-oxo-2-((2′-oxo-1,1′,2′,3-tetrahydrospiro[indene-2,3′-pyrrolo[2,3-b]pyridin]-5-yl)amino)ethyl)pivalamide] | 33.1
CC(C)(C)C(=O)N(CC(=O)Nc1ccc2c(c1)CC1(C2)C(=O)Nc2ncccc21)Cc1ccccc1CNCCF (stereo not shown) [Example 17, N-(2-(((2-Fluoroethyl)amino)methyl)benzyl)-N-(2-oxo-2-((2′-oxo-1,1′,2′,3-tetrahydrospiro[indene-2,3′-pyrrolo[2,3-b]pyridin]-5-yl)amino)ethyl)pivalamide] | 12.3
COCCNCc1ccccc1CN(CC(=O)Nc1ccc2c(c1)CC1(C2)C(=O)Nc2ncccc21)C(=O)C(C)(C)C (stereo not shown) [Example 18, N-(2-(((2-Methoxyethyl)amino)methyl)benzyl)-N-(2-oxo-2-((2′-oxo-1,1′,2′,3-tetrahydrospiro[indene-2,3′-pyrrolo[2,3-b]pyridin]-5-yl)amino)ethyl)pivalamide] | 33.1
CC(C)NCc1ccccc1CN(CC(=O)Nc1ccc2c(c1)CC1(C2)C(=O)Nc2ncccc21)C(=O)C(C)(C)C (stereo not shown) [Example 19, N-(2-((Isopropylamino)methyl)benzyl)-N-(2-oxo-2-((2′-oxo-1,1′,2′,3-tetrahydrospiro[indene-2,3′-pyrrolo[2,3-b]pyridin]-5-yl)amino)ethyl)pivalamide] | 89.1
CC(C)(C)C(=O)N(CC(=O)Nc1ccc2c(c1)CC1(C2)C(=O)Nc2ncccc21)Cc1ccccc1CNC1CCC1 (stereo not shown) [Example 20, N-(2-((Cyclobutylamino)methyl)benzyl)-N-(2-oxo-2-((2′-oxo-1,1′,2′,3-tetrahydrospiro[indene-2,3′-pyrrolo[2,3-b]pyridin]-5-yl)amino)ethyl)pivalamide] | 105
CNC(C)c1ccccc1CN(CC(=O)Nc1ccc2c(c1)CC1(C2)C(=O)Nc2ncccc21)C(=O)C(C)(C)C (stereo not shown) [Example 23, N-(2-(1-(Methylamino)ethyl)benzyl)-N-(2-oxo-2-((2′-oxo-1,1′,2′,3-tetrahydrospiro[indene-2,3′-pyrrolo[2,3-b]pyridin]-5-yl)amino)ethyl)pivalamide] | 13.2
CC(c1ccccc1CN(CC(=O)Nc1ccc2c(c1)CC1(C2)C(=O)Nc2ncccc21)C(=O)C(C)(C)C)N(C)C (stereo not shown) [Example 24, N-(2-(1-(Dimethylamino)ethyl)benzyl)-N-(2-oxo-2-((2′-oxo-1,1′,2′,3-tetrahydrospiro[indene-2,3′-pyrrolo[2,3-b]pyridin]-5-yl)amino)ethyl)pivalamide] | 34.7
CC(c1ccccc1CN(CC(=O)Nc1ccc2c(c1)CC1(C2)C(=O)Nc2ncccc21)C(=O)C(C)(C)C)N1CCC1 (stereo not shown) [Example 25, N-(2-(1-(Azetidin-1-yl)ethyl)benzyl)-N-(2-oxo-2-((2′-oxo-1,1′,2′,3-tetrahydrospiro[indene-2,3′-pyrrolo[2,3-b]pyridin]-5-yl)amino)ethyl)pivalamide] | 75.9
CCNCc1ccccc1CN(CC(=O)Nc1ccc2c(c1)CC1(C2)C(=O)Nc2ncccc21)C(=O)C(C)(C)C (stereo not shown) [Example 27, N-(2-((Ethylamino)methyl)benzyl)-N-(2-oxo-2-((2′-oxo-1,1′,2′,3-tetrahydrospiro[indene-2,3′-pyrrolo[2,3-b]pyridin]-5-yl)amino)ethyl)pivalamide] | 30.2
C=CCN(CC=C)CCc1ccccc1CN(CC(=O)Nc1ccc2c(c1)CC1(C2)C(=O)Nc2ncccc21)C(=O)C(C)(C)C (stereo not shown) [Example 28, N-(2-(2-(Diallylamino)ethyl)benzyl)-N-(2-oxo-2-((2′-oxo-1,1′,2′,3-tetrahydrospiro[indene-2,3′-pyrrolo[2,3-b]pyridin]-5-yl)amino)ethyl)pivalamide] | 490

Reference: US11400081B2, “Compounds” (The University of Sheffield, priority 2017, dated 2022)
